Measured values from the NIST ThermoML archive (doi:10.1016/j.fluid.2007.08.006).
Numbers after ± are expanded uncertainties.

Conditions: 101.33 kPa, Liquid; for viscosity: Capillary tube (Ostwald / Ubbelohde) method; for mass density: Pycnometric method; for speed of sound: Sing-around technique in a fixed-path interferometer

SMILES	viscosity (303.15 K)	mass density (303.15 K)	speed of sound (303.15 K)	viscosity (308.15 K)	mass density (308.15 K)	speed of sound (308.15 K)	viscosity (313.15 K)	mass density (313.15 K)	speed of sound (313.15 K)
CCC(C)=O [butanone]	0.352 ± 0.009 mPa·s	802.5 ± 3.7 kg/m3	1168.6 ± 6.9 m/s	0.334 ± 0.009 mPa·s	800.1 ± 3.6 kg/m3	1157.2 ± 6.9 m/s	0.315 ± 0.008 mPa·s	800.3 ± 3.7 kg/m3	1130.4 ± 6.8 m/s
CCO [ethanol]	–	772.4 ± 3.4 kg/m3	1135.4 ± 6.8 m/s	0.658 ± 0.017 mPa·s	771.6 ± 3.4 kg/m3	1133.2 ± 6.8 m/s	0.617 ± 0.016 mPa·s	771.2 ± 3.4 kg/m3	1130.8 ± 6.8 m/s
CN(C)C=O [dimethylformamide]	0.715 ± 0.018 mPa·s	927.2 ± 4.9 kg/m3	1404.6 ± 7.5 m/s	0.693 ± 0.018 mPa·s	919.7 ± 4.8 kg/m3	1400.8 ± 7.5 m/s	0.677 ± 0.018 mPa·s	916.4 ± 4.8 kg/m3	1420.8 ± 7.6 m/s
